According to patent US20240156764A1, “INHIBITION OF URACIL DNA GLYCOSYLASE IN THE OPEN CONFORMATION” (CASE WESTERN RESERVE UNIVERSITY, priority 2022, published 2024):

Key:
human OGG1 protein = molecular target: T1, human OGG1 protein (Homo sapiens, UniProt O15527); assay: Gel-based DNA cleavage assay with a single oxoG:C basepair; assay type: biochemical
T1 construct: purchased NEBiolabs (New England Biolabs)
Description: 20% polyacrylamide nucleic acid urea gel electrophoresis was used to resolve the DNA bands at room temperature, 200 v for 50 min. Analysis and quantification of DNA cleavage were done as follows. A background subtraction step was included using the 23mer from the DNA only lane. […] B: Points on the plot were averaged from four different gels. The IC50 value was generated using Prism software version 8.4.3, non-linear fit, [inhibitor] vs. response (three parameters, R2=0.99) averaging points from four different gels. Y error bars represent the standard deviation from the mean. […] A single oxo-guanine: cytosine base pair DNA with a Cy3 fluorescent tag on the 3′ end was used (10 nM). D: The IC50 value was generated using Prism software version 8.4.3, non-linear fit, [inhibitor] vs. response (three parameters, R2=0.98) averaging points from three different gels.
Following pre-incubation occurred for 20 min at 37° C., 2 μL of U:A DNA (500 nM stock) was added to initiate the reaction, total reaction volume of 50 μL/well. Each plate was incubated for 120 min at 37° C. […] Gel data were analyzed using ImageJ software. […] Percent cleavage was calculated by using fluorescence intensity of the cleaved 23-mer DNA strand divided by the sum of the fluorescence bands (23mer+40mer DNA strands)*100. […]

[1] = system: uracil removal in wild type HAP cells; assay: Host-cell reactivation assay, uracil removal, wild type HAP cells; assay type: cell-based, human; details: ATA 5.0 μM
Description: A: MCF-7 cells were seeded at 50,000 cells per well in a 12-well plate. B: HAP cells (wild type or UNG gene knockout) were seeded at 75,000 cells per well in a 6-well plate. […] After 24 hours, cells were dissociated by trypsinization and analyzed by flow cytometry using an Atune NxT flow cytometer. Gating and compensation were determined by transfection of single-color controls. Reporter expression was calculated for each dose of ATA as previously described in publications and normalized to DMSO treatment.
Removal of uracil in cells was measured using a reporter plasmid containing a dU:dG base pair (referred to as BFP_U), as described previously. […] The reciprocal of BFP_U reporter expression was calculated for each experimental condition. […] This creates a premature stop codon, completely abolishing fluorescence. Removal of thymidine followed by insertion of dC opposite dG restores reporter fluorescence.
Human breast cancer MCF-7 cells were seeded at 50,000 cells per well in a 12-well plate, while HAP cells (wild type or UNG knockout) were seeded at 75,000 cells per well in a 6-well plate. […] After 24 hours, cells were dissociated by trypsinization and analyzed by flow cytometry using an Atune NxT flow cytometer. Gating and compensation were determined by transfection of single-color controls. […]

T1 sequence (O15527 whole entry): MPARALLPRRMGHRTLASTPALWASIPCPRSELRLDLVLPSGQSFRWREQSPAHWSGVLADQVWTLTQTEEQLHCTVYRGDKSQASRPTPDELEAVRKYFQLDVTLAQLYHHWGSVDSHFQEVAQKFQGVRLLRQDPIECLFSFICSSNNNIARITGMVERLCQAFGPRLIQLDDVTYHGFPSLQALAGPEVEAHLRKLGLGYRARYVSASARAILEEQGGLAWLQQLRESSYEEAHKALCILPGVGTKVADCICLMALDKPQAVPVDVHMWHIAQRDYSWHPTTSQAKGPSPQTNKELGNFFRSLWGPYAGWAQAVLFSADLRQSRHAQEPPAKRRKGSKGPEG

O=C(O)C1=CC(=C(c2ccc(O)c(C(=O)O)c2)c2ccc(O)c(C(=O)O)c2)C=CC1=O [ATA, aurintricarboxylic acid]
inhibitory effect on purified human OGG1 (human OGG1 protein; OGG1 10 nM, compared with UDG): lesser inhibitory effect | IC50 (human OGG1 protein; dsDNA with single 8oxoG:C bp, gel-based): 4.5 µM | reduction of uracil removal in wild type cells [1]: 1.8 fold | share of the effect of UDG knockout [1]: 60%
